Data taken from patent US11401278B2, “Macrocyclic indole derivatives” (The Broad Institute, Inc., priority 2017, dated 2022).
Where “and” joins values, the source holds several entries; their conditions need not be identical. Equal values may be shown once. Where a name gives a salt, the structure may show the parent alone. Read-outs that look alike come from different tables or passages of the source.

How the values were obtained:
HMC-1-8 = assay: Antiproliferation assay (Assay 7), HMC-1-8; format: cell-based; conditions: CellTiter-Glo, several values per example, read-out: Antiproli HMC-1-8 [M] IC50
How it was run: (§1)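 Proliferation was read by CellTiter-Glo luminescence after 72 hours of compound treatment at 37° C. The read was referenced to a parallel plate measured at time zero.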

BCL-XL = BCL-XL (Homo sapiens (Human), UniProt Q07817); assay: Protein-protein interaction assay BCL-XL/Bad BH3 peptide (BCL-XL assay, TR-FRET); format: binding; conditions: His-BCL-XL / Bad BH3 peptide, median
Sequence of BCL-XL (Q07817 other isoform, or with tags, fused parts or gaps): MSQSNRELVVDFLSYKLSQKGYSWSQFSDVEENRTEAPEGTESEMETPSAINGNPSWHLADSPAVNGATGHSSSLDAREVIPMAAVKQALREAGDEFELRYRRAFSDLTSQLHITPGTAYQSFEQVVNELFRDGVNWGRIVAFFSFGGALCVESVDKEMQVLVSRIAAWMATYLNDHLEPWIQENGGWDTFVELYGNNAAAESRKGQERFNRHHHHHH
How it was run: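 His-tagged human BCL-XL (aa 1-212, 1 nM final) was preincubated 10 min at 22 °C with compound (11 concentrations, 0.1 nM–20 μM), then biotinylated Bad BH3 peptide (1 nM) and TR-FRET reagents were added. Incubation: 1 h at 22 °C, then overnight at 4 °C, pH 7 Tris buffer. IC50 from 4-parameter fit of 665/620 ratio.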

MV-4-11 = assay: Antiproliferation assay (Assay 7), MV-4-11; format: cell-based; conditions: CellTiter-Glo, 72 hours, several values per example, listed as 08, read-out: Antiproli MV-4-11 [M] IC50
How it was run: as §1

SMILES	IC50 (HMC-1-8; 72 h) [M]	IC50 (BCL-XL) [µM]	IC50 (MV-4-11) [M]	IC50 (HMC-1-8; 72 hours)
CCc1c2c(nn1C)CN(C)S(=O)(=O)CCCn1c(C(=O)O)c(CCCOc3cccc4cc(F)ccc34)c3ccc(F)c-2c31 (single isomer, unassigned; enantiomer 1) [Example 8, (+)-3-Ethyl-4-fluoro-7-{3-[(6-fluoronaphthalen-1-yl)oxy]propyl}-2,14-dimethyl-13,13-dioxo-10,11,12,13,14,15-hexahydro-2H-13λ^6-pyrazolo[3′,4′:4,5][1,2,8]thiadiazacycloundecino-[6,7,8-hi]indole-8-carboxylic acid (Enantiomer 1)]	2.2e-06	> 20	1.18e-06	
Cc1c2c(nn1C)CN(C)S(=O)(=O)CCCn1c(C(=O)O)c(CCCOc3cccc4cc(F)ccc34)c3ccc(F)c-2c31 (single isomer, unassigned; enantiomer 2) [Example 39, (+)-4-fluoro-7-{3-[(6-fluoronaphthalen-1-yl)oxy]propyl}-2,3,14-trimethyl-13,13-dioxo-10,11,12,13,14,15-hexahydro-2H-13lambda^6-pyrazolo[3′,4′:4,5][1,2,8]thiadiazacycloundecino-[6,7,8-hi]indole-8-carboxylic acid (Enantiomer 2)]		> 20		3.3e-06 M and 5.1e-06 M
Cc1c2c(nn1C)C(CCN1CCOCC1)N(C)S(=O)(=O)CCCn1c(C(=O)O)c(CCCOc3cccc4cc(F)ccc34)c3ccc(Cl)c-2c31 (single isomer, unassigned; enantiomer 1) [Example 66, 4-chloro-7-{3-[(6-fluoronaphthalen-1-yl)oxy]propyl}-2,3,14-trimethyl-15-[2-(morpholin-4-yl)ethyl]-13,13-dioxo-10,11,12,13,14,15-hexahydro-2H-13lambda^6-pyrazolo[3′,4′:4,5][1,2,8]thiadiazacycloundecino[6,7,8-hi]indole-8-carboxylic acid (Enantiomer 1)]		> 20		> 3.3e-05 M
Cc1c2c(nn1C)C(N1CCOCC1)CCN(C)S(=O)(=O)CCCn1c(C(=O)O)c(CCCOc3cccc4cc(F)ccc34)c3ccc(Cl)c-2c31 (racemic) [Example 47, (rac)-15-chloro-1-(3-((6-fluoronaphthalen-1-yl)oxy)propyl)-8,13,14-trimethyl-11-(rac)-morpholino-5,6,9,10,11,13-hexahydro-4H,8H-pyrazolo[3′,4′:6,7][1]thia[2,10]diazacyclotridecino[8,9,10-hi]indole-2-carboxylic acid 7,7-dioxide (Mixture of Stereoisomers)]	8e-06	> 20		1.2e-05 M
Cc1c2c(nn1C)CN(C1CC1)S(=O)(=O)CCCn1c(C(=O)O)c(CCCOc3cccc4cc(F)ccc34)c3ccc(Cl)c-2c31 (single isomer, unassigned; enantiomer 1) [Example 42, (−)-4-chloro-14-cyclopropyl-7-{3-[(6-fluoro-1-naphthyl)oxy]propyl}-2,3-dimethyl-11,12,14,15-tetrahydro-2H,10H-pyrazolo[3′,4′:4,5][1,2,8]thiadiazacycloundecino[6,7,8-hi]indole-8-carboxylic acid 13,13-dioxide N-diethylamine salt (Enantiomer 1)]		18		5.9e-06 M and 3.8e-06 M
Cc1c2c(nn1C)CN(C1CC1)S(=O)(=O)CCCn1c(C(=O)O)c(CCCOc3cccc4cc(F)ccc34)c3ccc(Cl)c-2c31 (single isomer, unassigned; enantiomer 2) [Example 43, (+)-4-chloro-14-cyclopropyl-7-{3-[(6-fluoro-1-naphthyl)oxy]propyl}-2,3-dimethyl-11,12,14,15-tetrahydro-2H,10H-pyrazolo[3′,4′:4,5][1,2,8]thiadiazacycloundecino[6,7,8-hi]indole-8-carboxylic acid 13,13-dioxide N-diethylamine salt (Enantiomer 2)]		> 20		> 3.3e-05 M
CCc1c2c(nn1C)CN(C)S(=O)(=O)CCCn1c(C(=O)O)c(CCCOc3cccc4cc(F)ccc34)c3ccc(Cl)c-2c31 (single isomer, unassigned; enantiomer 1) [Example 36, (+)-4-chloro-3-ethyl-7-{3-[(6-fluoronaphthalen-1-yl)oxy]propyl}-2,14-dimethyl-13,13-dioxo-10,11,12,13,14,15-hexahydro-2H-13lambda^6-pyrazolo[3′,4′:4,5][1,2,8]thiadiazacycloundecino-[6,7,8-hi]indole-8-carboxylic acid (Enantiomer 1)]		> 20		1.7e-06 M and 1.9e-06 M
